Data from ChEMBL document CHEMBL1201862, “PubChem BioAssay data set” (2004).
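Step 1: Grow cells in 96-well plates. Step 2: Expose to compound for 48 hours at 5 concentrations. Step 3: Interpolate endpoints linearly; if unreached, use highest concentration. Here, GI50 denotes the concentration required for 50% inhibition of growth.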 Activity calls are given as the source filed them. Rule as the data show it: active = GI50 up to about 1.1 µM and inactive = higher.

Key:
Assay in all cases: growth of human tumour cells (NCI), 48 h
HCC 2998 = tested on: HCC 2998
A498 = tested on: A498
HL-60 = tested on: HL-60
786-0 = tested on: 786-0
HCT-15 = tested on: HCT-15
CAKI-1 = tested on: CAKI-1
DMS-273 = tested on: DMS-273
EKVX = tested on: EKVX
HOP-18 = tested on: HOP-18
OVCAR-5 = tested on: OVCAR-5
MOLT-4 = tested on: MOLT-4
SF-295 = tested on: SF-295
SF-268 = tested on: SF-268
DLD-1 = tested on: DLD-1
UACC-257 = tested on: UACC-257
DU-145 = tested on: DU-145
XF498 = tested on: XF498
RXF 393 = tested on: RXF 393
HOP-92 = tested on: HOP-92
CCRF-CEM = tested on: CCRF-CEM
SW-620 = tested on: SW-620
IGROV-1 = tested on: IGROV-1
NCI-H460 = tested on: NCI-H460
MDA-MB-231 = tested on: MDA-MB-231
M14 = tested on: M14
A549 = tested on: A549
LXFL 529 = tested on: LXFL 529
Malme-3M = tested on: Malme-3M
UO-31 = tested on: UO-31
M19-MEL = tested on: M19-MEL
NCI-H226 = tested on: NCI-H226
SK-MEL-2 = tested on: SK-MEL-2
HCT-116 = tested on: HCT-116
SK-MEL-5 = tested on: SK-MEL-5
RPMI-8226 = tested on: RPMI-8226
Hs-578T = tested on: Hs-578T
K562 = tested on: K562
ACHN = tested on: ACHN
RXF 631 = tested on: RXF 631
OVCAR-3 = tested on: OVCAR-3
PC-3 = tested on: PC-3
HT-29 = tested on: HT-29
SF-539 = tested on: SF-539
KM-20L2 = tested on: KM-20L2
SNB-75 = tested on: SNB-75
LOX IMVI = tested on: LOX IMVI
NCI-H522 = tested on: NCI-H522
OVCAR-4 = tested on: OVCAR-4
T47D = tested on: T47D
UACC-62 = tested on: UACC-62
NCI/ADR-RES = tested on: NCI/ADR-RES
BT-549 = tested on: BT-549
TK-10 = tested on: TK-10
U-251 = tested on: U-251
MDA-N = tested on: MDA-N
SN12C = tested on: SN12C
HOP-62 = tested on: HOP-62
MCF7 = tested on: MCF7
SR = tested on: SR
KM12 = tested on: KM12
COLO 205 = tested on: COLO 205
SK-MEL-28 = tested on: SK-MEL-28
OVCAR-8 = tested on: OVCAR-8
SNB-19 = tested on: SNB-19
NCI-H23 = tested on: NCI-H23
SK-OV-3 = tested on: SK-OV-3
MDA-MB-435 = tested on: MDA-MB-435
DMS-114 = tested on: DMS-114
SNB-78 = tested on: SNB-78

COC1C(N)C(OC2C(Oc3cccc4c(O)c5c(=O)oc6ccc(C)c7c(=O)oc(c34)c5c67)OC(C)C(O)C2(C)O)OC(C)C1O (centres undefined)
GI50 (HCC 2998): 110 nM (active)
GI50 (A498): < 10 nM (active)
GI50 (HL-60): 41.6 nM (active)
GI50 (786-0): < 12.3 nM (active)
GI50 (HCT-15): 92.5 nM
GI50 (CAKI-1): 15.9 nM (active)
GI50 (DMS-273): < 10 nM (active)
GI50 (EKVX): 156 nM (active)
GI50 (HOP-18): 152 nM (active)
GI50 (OVCAR-5): 270 nM (active)
GI50 (MOLT-4): < 24.3 nM (active)
GI50 (SF-295): 31.2 nM (active)
GI50 (SF-268): < 11.9 nM (active)
GI50 (DLD-1): 20.6 nM (active)
GI50 (UACC-257): 65.8 nM (active)
GI50 (DU-145): 187 nM (active)
GI50 (XF498): < 11.6 nM (active)
GI50 (RXF 393): < 18.4 nM (active)
GI50 (HOP-92): 23.1 nM (active)
GI50 (CCRF-CEM): < 23.6 nM (active)
GI50 (SW-620): 10.2 nM (active)
GI50 (IGROV-1): < 19.7 nM (active)
GI50 (NCI-H460): < 12.2 nM (active)
GI50 (MDA-MB-231): 109 nM (active)
GI50 (M14): 78.9 nM (active)
GI50 (A549): 63.4 nM (active)
GI50 (LXFL 529): < 12.1 nM (active)
GI50 (Malme-3M): < 10.7 nM (active)
GI50 (UO-31): 74.6 nM (active)
GI50 (M19-MEL): 16.6 nM (active)
GI50 (NCI-H226): 20.1 nM (active)
GI50 (SK-MEL-2): 10.8 nM (active)
GI50 (HCT-116): < 10 nM (active)
GI50 (SK-MEL-5): 31 nM (active)
GI50 (RPMI-8226): < 10 nM (active)
GI50 (Hs-578T): < 10 nM (active)
GI50 (K562): < 15.4 nM (active)
GI50 (ACHN): 39.9 nM (active)
GI50 (RXF 631): 35.1 nM (active)
GI50 (OVCAR-3): 108 nM (active)
GI50 (PC-3): 24.6 nM (active)
GI50 (HT-29): < 16.8 nM (active)
GI50 (SF-539): < 15.4 nM (active)
GI50 (KM-20L2): 56.8 nM (active)
GI50 (SNB-75): 31.3 nM (active)
GI50 (LOX IMVI): < 12.5 nM (active)
GI50 (NCI-H522): < 10 nM (active)
GI50 (OVCAR-4): 405 nM (active)
GI50 (T47D): 26.6 nM (active)
GI50 (UACC-62): 20.8 nM (active)
GI50 (NCI/ADR-RES): 427 nM (active)
GI50 (BT-549): 19.2 nM (active)
GI50 (TK-10): 64.3 nM (active)
GI50 (U-251): < 10 nM (active)
GI50 (MDA-N): 74.3 nM (active)
GI50 (SN12C): 17.8 nM (active)
GI50 (HOP-62): 42.8 nM (active)
GI50 (MCF7): < 10 nM (active)
GI50 (SR): < 215 nM (active)
GI50 (KM12): 31.3 nM (active)
GI50 (COLO 205): 45.6 nM (active)
GI50 (SK-MEL-28): 29 nM (active)
GI50 (OVCAR-8): 15.4 nM (active)
GI50 (SNB-19): 18.6 nM (active)
GI50 (NCI-H23): 26.9 nM (active)
GI50 (SK-OV-3): 114 nM (active)
GI50 (MDA-MB-435): 31.3 nM (active)
GI50 (DMS-114): 22.9 nM (active)
GI50 (SNB-78): 39.4 nM (active)
